In patent US7465558B2, “Perfusion system and apparatus for automated multi-channel patch-clamp recordings utilizing inside-out whole-cell configuration” (Wyeth, priority 2004, dated 2008):
“Also recorded” adds a separate entry of the source.

Test system: outward potassium currents
Test: inside-out whole-cell patch clamp recording of outward potassium currents
Assay type: cell-based
Experimental: These currents were elicited by a test voltage of+40 mV preceded by a 500 ms long prepulse to−110 mV from a holding potential of−70 mV. […] Current traces were obtained in 5 minute time intervals.
FIG. 14 illustrates a graph showing outward potassium currents with test compounds according to an embodiment of the invention. […] Each test increment followed a 0.5 second long hyperpolarizing prepulse to−110 mV, while keeping the membrane potential at−70 mV between pulses. In the first (left-most) plot, measurements of current were taken while the cell was bathed in a control solution. The cell was then placed in a 10 mM 4-AP bath solution, and the measurements of the second (middle) plot were recorded. The chemical called 4-AP is a pharmacological blocker of these ion channels. The cell was then washed of the 4-AP solution, and the cell was again bathed in the control solution. Measurements were recorded as in the first and second plots, and the results are shown in the third (right-most) plot. For purposes of an inside-out whole cell patch clamp measurement, the control and 4-AP baths represented the intracellular region.
FIG. 15 illustrates a graph showing potassium current amplitude (I) behavior as a function of applied membrane voltages (V) according to an embodiment of the invention. […] Here, the black square points correspond to the left-most plot in FIG. 14, the black circles correspond to the center plot of FIG. 14 showing the reduced potassium current in the presence of 10 mM 4-AP bath solution, and the white circles correspond to measurements after the 4-AP was washed away in the right-most plot of FIG. 14.
This current is approximately 50% lower than in the left and right plots, which correspond to measurements in the control solution before and after drug action, respectively.

Nc1ccncc1 [4-AP]
block of potassium current amplitude (10 mM 4-AP bath solution representing the intracellular region, first cell, FIG. 14): about 50% | current across the membrane relative to current in control solution (10 mM 4-AP bath solution, first cell, current amplitude versus membrane voltage, FIG. 15): less than 50% | reversibility of the effect with wash-out perfusion (first cell, after washing and return to control solution, FIG. 14/15): fully (or at least substantially) reversible; also recorded: reversible process | current lower than in control solution before and after drug action (second cell, in the presence of 4-AP, FIG. 16): approximately 50% | current amplitude after washing compared with control substance (second cell, wash-out, FIG. 17): nearly equal
